What all share (assay): relative viability (nuclei count vs DMSO), 5 days (fraction); higher = more cells survive
Compound in the assay “Mirin + Tozasertib”: N=C1NC(=O)/C(=C/c2ccc(O)cc2)S1 [Mirin] + Cc1cc(Nc2cc(N3CCN(C)CC3)nc(Sc3ccc(NC(=O)C4CC4)cc3)n2)n[nH]1 [Tozasertib] (partner 0.1 µM)
The gist of the method:
(§1)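 One day after seeding in 1536-well plates, lung cancer cell lines were dosed by pin tool. Dosing was either single-drug or a fixed anchor-drug dose plus five library-drug doses (not always all listed) in √10 steps. After 5 days, nuclei were stained in one fix-and-stain step and counted on 4× images, and relative viability is the nuclei count of treated wells over that of vehicle wells, given as the median of duplicate plates.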

Compound in assay [1]: CCn1c(-c2nonc2N)nc2cnc(Oc3cccc(NC(=O)c4ccc(OCCN5CCOCC5)cc4)c3)cc21 + C[C@]1(O)C[C@@H](c2nc(-c3ccc4ccc(-c5ccccc5)nc4c3)c3c(N)nccn32)C1 [Linsitinib] (partner 1 µM)
Put shortly:
as §1

Compound in the assay “Mirin + Alpelisib”: N=C1NC(=O)/C(=C/c2ccc(O)cc2)S1 [Mirin] + Cc1nc(NC(=O)N2CCC[C@H]2C(N)=O)sc1-c1ccnc(C(C)(C)C(F)(F)F)c1 [Alpelisib] (partner 2 µM)
Put shortly:
as §1

Compound in assay [2]: CCn1c(-c2nonc2N)nc2cnc(Oc3cccc(NC(=O)c4ccc(OCCN5CCOCC5)cc4)c3)cc21 + COc1cc2c(Oc3ccc(NC(=O)C4(C(=O)Nc5ccc(F)cc5)CC4)cc3F)ccnc2cc1OCCCN1CCOCC1 [Foretinib] (partner 0.25 µM)
The gist of the method:
as §1

For 1 cell line, relative viability results are on record in the supplement of paper PMC10307832.

Consider UMC-11, for which the relative viability with Mirin + Tozasertib (first compound 0.25 µM) was 0.196; in the assay with Mirin + Tozasertib (first compound 2.5 µM), 0.203; in the assay with Mirin + Tozasertib (first compound 7.906 µM), 0.181; with Mirin + Tozasertib (first compound 25 µM) it was 0.189; in assay [1] (first compound 0.04 µM), 1.14; in assay [1] (first compound 0.1265 µM), 1.07. The relative viability is 0.915 in assay [1] (first compound 0.4 µM); 0.322 in assay [1] (first compound 1.265 µM); 0.337 in assay [1] (first compound 4 µM); 1.03 in the assay with Mirin + Alpelisib (first compound 0.25 µM); 0.958 in the assay with Mirin + Alpelisib (first compound 0.7906 µM); 0.96 with Mirin + Alpelisib (first compound 2.5 µM). In addition, the relative viability with Mirin + Alpelisib (first compound 7.906 µM) worked out at 0.935; with Mirin + Alpelisib (first compound 25 µM), 0.572; in assay [2] (first compound 0.04 µM), 1.04; in assay [2] (first compound 0.1265 µM), 0.903; in assay [2] (first compound 0.4 µM), 0.68; in assay [2] (first compound 1.265 µM), 0.245. The relative viability in assay [2] (first compound 4 µM) turned out to be 0.186.
